# Experimental data: patent US5304474A, “Hydrophobic peptide esters and amides” (Board of Regents, The University of Texas System, priority 1991, dated 1994)
# What was measured:
# human dermal fibroblasts = test: 51Cr release toxicity assay
# Protocol: (§2) In some experiments, toxicity of Leu-Leu-OMe for a variety of cell populations was assessed by ^51 Cr release In assays where cells obtained from suspension culture were to be used, cells were labeled with Na2^51 CrO4 (ICN, Plainview, N.Y.) for 60-90 minutes at 37° C. and then washed three times. Cells were then suspended in PBS (2.5×10^6 /ml) and incubated in microtiter plates, 50 microL/well with indicated concentrations of Leu-Leu-OMe for 15 minutes at room temperature. […] Following ^51 Cr labeling, wells were thoroughly washed and varying concentrations of Leu-Leu-OMe added in 50 microL PBS and the plates incubated for 15 minutes at room temperature.
# (§3) Following such initial serum-free incubations, 200 microL/well of medium RPMI containing 10% FBS were added and the plates incubated for another 4 hours prior to removal of 100 microliters of supernatant. Radioactivity in the supernatant was measured in an auto-gamma scintillation spectrometer (Packard Instrument Co., Downers Grove, Ill.). The percent specific release was calculated from the formula: [formula] in which maximal release refers to cpm obtained in wells containing 50% lysing agent (American Scientific Products, McGraw Park, Ill.) and spontaneous release refers to cpm released by cells incubated in control medium in the absence of Leu-Leu-OMe or the lysing agent.
# [1] = tested on: human umbilical vein endothelial cells; test: 51Cr release toxicity assay
# Protocol: as §2, §3
# [2] = tested on: [^3 H]Leu-Leu-OMe uptake by PBL (facilitated transport); test: Competitive inhibition of [3H]Leu-Leu-OMe uptake; assay type: cell-based, human
# Protocol: Human peripheral blood lymphocytes (PBL) were incubated in the presence of [^3 H]labeled Leu-Leu-OMe at 22° C. for varying lengths of time. The incubation mixture was then centrifuged through silicone oil to separate the cells from any unbound or non-internalized [^3 HLeu-Leu-OMe. […] At 37° C., levels of [^3 H]Leu-Leu-OMe accumulation by PBL were increased above those seen at 22° C. (see Table 4).
# B Cells = test: Leu-Leu-OMe sensitivity of cell type; assay type: cell-based, human
# spleen cells = test: Spleen cell H-2 phenotype of transplanted mice (chimerism); assay type: in vivo, B6→B6D2F1 mice; settings: recipients of treated cells, up to 275 d after transplantation
# Protocol: Spleen cells from control mice (normal B6 or B6D2F1) and long-term BMTx survivors (B6→B6D2F1) were depleted of B cells by panning on goat anti-mouse immunoglobulin-coated petri dishes (15). Aliquots of B cell-depleted spleen cells were incubated either with antibody 30-5-7.S (anti-L^d), antibody 28-18-3.S (anti-k^b), or with a relevant isotype control antibody for 30 min at 4° C. Cells were then washed and incubated with a fluorescein isothiocyanate-labeled goat anti-mouse immunoglobulin (GAMIG-FITC, Cappell Laboratories, Cochranville, Pa.) and analyzed on a flow cytometer (Ortho system 50 HH, Ortho Diagnostics, Raritan, N.J.).
# To see whether the donor hemopoietic system remained dominant over that of the irradiated recipient, we characterized the H-2 phenotype of spleen cells from the mice used in the survival experiments at various times after transplantation. Spleen cells from normal B6 (donor, H-2^b) and B6D2F1 (recipient, H-2^b /H-2^d) mice served as controls.
# [3] = Activity and appearance of mice post-injection; assay type: in vivo, C3H/HeJ mice; settings: 15-30 minutes post-injection, about 1×10^-3 moles per kg tail-vein
# Protocol: (§1) Leu-Leu-OMe or Leu-Phe-OMe were suspended in PBS, pH 7.4. Then individual C3H/HeJ mice (25 gram size) were administered by tail-vein injection either 2.5×10^-5 moles (6.5 mg) of Leu-Leu-OMe, 2.5×10^-5 moles (7.1 mg) Leu-Phe-OMe, or an equal volume of the PBS diluent, this dose being about 1×10^-3 moles per kg. […] Subsequent to this quiescent period no difference in activity or appearance in the mice was noted. Two hours post-injection, the mice were sacrificed and their spleen cells were assayed for NK function in a standard 4 hour assay against YAC-1 tumor targets. In all mice, total cell recovery ranged […] spleen cells per animal. […] Thus, Leu-Leu-OMe or Leu-Phe-OMe caused a greater than 75% decrease in splenic lytic activity against YAC-1 tumor targets.
# [4] = tested on: splenic NK function (YAC-1 tumor targets); test: Spleen cell NK function against YAC-1 after tail-vein injection; assay type: in vivo, C3H/HeJ mice
# Protocol: as §1
# human erythrocytes (RBC) = test: 51Cr release from RBC incubated with peptide ester alone; assay type: cell-based; settings: for ^51 Cr Release from RBC: Nil 410 + 12
# Protocol: The following experiments were carried out to determine whether DPPI could generate a lytic product from Leu-Leu-OMe. In the experiment detailed in FIG. 12, ^51 Cr-labeled human erythrocytes (RBC) were incubated with varying concentrations of Leu-Leu-OMe alone or in the presence of purified bovine DPPI.
compound,measurement,setting,value
"COC(=O)[C@H](CC(C)C)NC(=O)[C@@H](N)CC(C)C [Leu-Leu-OMe, L-leucyl-L-leucine methyl ester]",51Cr release,human dermal fibroblasts,no significant Leu-Leu-OMe induced ^51 Cr release
same,subsequent proliferative capacity,human dermal fibroblasts; 500 micromolar,had no discernible effect on subsequent proliferative capacity
same,51Cr release,[1],no significant Leu-Leu-OMe induced ^51 Cr release
same,subsequent proliferative capacity,[1]; 500 micromolar,had no discernible effect on subsequent proliferative capacity
same,Leu--Leu--OMe Sensitivity (LD50),[1]; Endothelial Cells,> 500 micro-M
same,"competitive inhibition of [3H]Leu-Leu-OMe uptake, in words",[2],competitively inhibited
same,inhibition at 250 µM,"[2]; Homo sapiens, unlabeled compound 250 microM, [3H]Leu-Leu-OMe 10 microM (Table 5)",72%
same,Leu--Leu--OMe Sensitivity (LD50),B Cells,> 500 micro-M
same,reactivity of spleen cells with anti-H-2^b,spleen cells,> 95%
same,reactivity of spleen cells with anti-H-2^d,spleen cells,< 1%
same,activity and appearance post-injection,[3],exhibited decreased activity and an apparent increase in sleep
same,Percent lysis of target cells,"[4]; E:T 25:1, 2.5×10^-5 moles per mouse tail-vein, 2 hours post-injection, Control 8.29",2.37%
same,Percent lysis of target cells,"[4]; E:T 50:1, same dosing, Control 12.88",4.58%
same,Percent lysis of target cells,"[4]; E:T 100:1, same dosing, Control 20.60",7.12%
same,Percent lysis of target cells,"[4]; E:T 200:1, same dosing, Control 29.29",12.77%
same,decrease in splenic lytic activity against YAC-1 tumor targets,[4]; about 1×10^-3 moles per kg tail-vein,greater than 75%
same,^51 Cr Release from RBC,human erythrocytes (RBC); 100 micro-M,400 + 27
same,^51 Cr Release from RBC,human erythrocytes (RBC); 500 micro-M,482 + 57
same,^51 Cr Release from RBC,human erythrocytes (RBC); 2500 micro-M,482 + 121
same,"damage to RBC by compound alone, in words",human erythrocytes (RBC); no DPPI,results in no damage to RBC
